Measured values: patent publication US7432300B2, “Gossypol co-crystals and the use thereof” (The Regents of the University of Michigan, priority 2004, dated 2008)

Format: physicochemical
Protocol: (−)-Gossypol acetic acid co-crystals were yellow or pale yellow and needle shaped. […] The co-crystals were insoluble in water. The uncorrected melting point of the co-crystals was determined to be 178-180° C. using a Mel-Temp apparatus.

solubility in acetone: readily soluble | solubility in chloroform: slightly soluble | solubility in ethanol: slightly soluble | solubility in ether: readily soluble | solubility in petroleum: sparsely soluble | solubility in water: insoluble
SMILES: Cc1cc2c(C(C)C)c(O)c(O)c(C=O)c2c(O)c1-c1c(C)cc2c(C(C)C)c(O)c(O)c(C=O)c2c1O [(−)-Gossypol acetic acid co-crystals, (−)-gossypol acetic acid]
